Data reported in US7598419B2, “Compounds for modulating cell proliferation” (HSC Research and Development Limited Partnership, priority 2004, dated 2009).
Values belong to the compound of their own block, whether it stands above or below them.

Experiments:
[1] = tested on: cells of the myeloid lineage; settings: in vitro, ex vivo and in vivo; cited from earlier work
[2] = tested on: Philadelphia positive ALL, AML and lymphoma; assay: High dose ex vivo / in vitro purging assays (summary); assay type: cell-based
[3] = tested on: normal bone marrow cells; assay: In vitro purging of normal bone marrow; assay type: cell-based, human; settings: 50 μM, seven hours exposure; FIG. 21
Description: Heparinized bone marrow cells were layered over Percoll (1.077 gm/ml) (Pharmacia Fine Chemical, Piscataway N.J.) and centrifuged at 400 g at 4° C. for 10 minutes to remove neutrophils and RBCs.
(§1) For the purging process, the cells were resuspended at 1×10^6/ml in complete medium with or without 50 μM CR4. The cells were incubated with the CR4 for two and a half hours at 37° C., 5% CO2. At the end of this period the cells were thoroughly washed in medium to remove CR4 and then cultured at 2×10^5 cells/ml in IMDM (OCI, Toronto) containing 0.9% (vol/vol) methylcellulose supplemented with 30% FCS (Cansera Rexdale, ON.) or normal human plasma, a cocktail of cytokines containing G-CSF (10 ng/ml, Amgen), IL-3 (40 U/ml, Immunex), MGF (50 ng/ml, Immunex), Erythropoietin (2 u/ml, Epprex) or TPO (10 ng/ml, Amgen) and 5×10^−5M β-2-mercaptoethanol. The culture mixture was plated in 1 ml volumes into 35 mm petri dishes and incubated at 37° C., 5% CO2 in a humidified atmosphere. All cultures were evaluated at 14 days for the number of BFU-E colonies (defined as aggregates of more than 500 hemaglobinized cells or, 3 or more erythroid subcolonies), CFU-C colonies (defined as granulocyte or monocyte-macrophage cells or both) and CFU-GEMM colonies (a mixed population comprising of all elements).
as §1, with “μM CR11.” for “μM CR4.”, “the tryrphostin” for “the CR4”, “for seven” for “for two and a half”, “remove CR11” for “remove CR4”, “methylcellulose supplementd” for “methylcellulose supplemented”, “500 hemoglobinized” for “500 hemaglobinized”

[4] = tested on: Philadelphia positive acute lymphoblastic leukemia cells; assay: In vitro purging of Philadelphia positive ALL with CR11; assay type: cell-based, human; settings: 50 μM, 7 hours exposure; FIG. 22
Description: For the purging assay, the cells were resuspended in complete medium with or without CR11 as indicated and incubated at 37° C., 5% CO2 for 0-7 hours. Cells were then washed thoroughly with medium to remove the CR11, resuspended and plated in 1 ml volumes, in the absence of exogenous growth factors, into 35 mm petri dishes (Nunc, Gibco) containing alpha MEM (Gibco) plus 20% FCS (Cansera Rexdale, ON.) in 0.9% (vol/vol) methylcellulose (Fluka, Switzerland). Cultures were set at 37° C., 5% CO2 in a humidified atmosphere. Colonies consisting of more than 20 cells were counted at 9 days or earlier using an inverted microscope.

[5] = tested on: a variety of cancer cells; assay: Growth of cancer cells in culture (summary over cell types); assay type: cell-based; settings: for effectiveness against a variety of cell types: Acute Lymphoblastic Leukemia, Philadelphia positive Leukemia, Acute Myeloid Leukemia
[6] = tested on: normal bone marrow cells; assay: CFU-GEMM assay: normal bone marrow differentiation in culture; assay type: cell-based, human
Description: (§2) The CFU-GEMM assay was performed according to Fauser and Messner (1978, Blood, 52(6) 143-8) and Messner and Fausser (1980, Blut, 41(5) 327-33) with some variations. In brief, heparinized bone marrow cells were layered over Percoll (1.077 gm/ml) (Pharmacia Fine Chemical, Piscataway N.J.) and centrifuged at 400 g at 4° C. for 10 minutes to remove neutrophils and RBCs. The fractionated BM cells at 2×10^5 cells/ml were cultured in IMDM (OCI, Toronto) containing 0.9% (vol/vol) methylcellulose supplementd with 30% FCS (Cansera Rexdale, ON.) or normal human plasma, a cocktail of cytokines containing G-CSF (10 ng/ml, Amgen), IL-3 (40 U/ml, Immunex), MGF (50 ng/ml, Immunex), Erythropoietin (2 u/ml, Epprex) or TPO (10 ng/ml, Amgen), 5×10^−5M β-2-mercaptoethanol and the specified concentration of CR4. The culture mixture was plated in 1 ml volumes into 35 mm petri dishes and incubated at 37° C., 5% CO2 in a humidified atmosphere. All cultures were evaluated at 14 days for the number of BFU-E colonies (defined as aggregates of more than 500 hemoglobinized cells or, 3 or more erythroid subcolonies), CFU-GM colonies (defined as granulocyte or monocyte-macrophage cells or both), CFU-Meg colonies (comprising 4 or more megakaryocytes) and CFU-GEMM colonies (a mixed population comprising of all elements).
as §2, with “1243-8)” for “143-8)”, “concentrations” for “concentration”, “CR19.” for “CR4.”, “hemaglobinized” for “hemoglobinized”, “subcolonies) and CFU-C” for “subcolonies), CFU-GM”, “both).” for “both), CFU-Meg colonies (comprising 4 or more megakaryocytes) and CFU-GEMM colonies (a mixed population comprising of all elements).”
as §2, with “1243-8)” for “143-8)”, “variations (British Journal of Haematology, 1992, 80, p 40-48).” for “variations.”, “test compound.” for “CR4.”, “CO2,” for “CO2”, “subcolonies) and CFU-C” for “subcolonies), CFU-GM”, “both).” for “both), CFU-Meg colonies (comprising 4 or more megakaryocytes) and CFU-GEMM colonies (a mixed population comprising of all elements).”

[7] = tested on: Philadelphia positive acute lymphoblastic leukemia (Ph+ ALL) cells; assay: Colony assay of Philadelphia positive ALL cells in methylcellulose culture; assay type: cell-based, human
Description: (§3) Ph+ ALL cells were plated in 1 ml volumes, in the absence of exogenous growth factors, into 35 mm petri dishes (Nunc, Gibco) containing alpha MEM (Gibco) plus 10-20% FCS (Cansera Rexdale, ON.) in 0.9% (vol/vol) methylcellulose (Fluka, Switzerland) with the indicated concentrations of CR4. Cultures were set at 37° C., 5% CO2 in a humidified atmosphere. Colonies consisting of more than 20 cells were counted at 12 days or earlier using an inverted microscope.
as §3, with “ALL” for “Ph+ ALL”, “20%” for “10-20%”, “and” for “with”, “compound.” for “CR4.”
as §3, with “ALL” for “Ph+ ALL”, “20%” for “10-20%”, “and” for “with”, “CR24.” for “CR4.”, “9” for “12”
as §3, with “ALL” for “Ph+ ALL”, “20%” for “10-20%”, “and” for “with”, “CR19.” for “CR4.”, “9” for “12”

[8] = low nanomolar doses, long term exposure

Structure (SMILES): COc1cc(/C=C/C=C(C#N)C#N)cc(OC)c1O [CR7, (E,E)-2-cyano-3-(3,5-dimethoxy-4-hydroxystyryl)acrylonitrile]
- promotion of myelopoiesis [1]: capable of promoting myelopoiesis

Structure (SMILES): COc1cc(/C=C/C=C(\C#N)C(=O)NCCc2ccccc2)cc(OC)c1O [CR8, (E,E)-2-(Phenylethylaminocarbonyl)-3-(3,5-dimethoxy-4-hydroxystyryl)acrylonitrile]
- promotion of myelopoiesis [1]: capable of promoting myelopoiesis

- BFU-E, CFU-GEMM and CFU-C colonies after purging [3]: all normal
Structure (SMILES): COc1cc(/C=C/C=C(\C#N)C(=O)NCc2ccc(O)c(O)c2)cc(OC)c1O [CR11, (E,E)-2-(3,4-Dihydroxybenzylaminocarbonyl)-3-(3,5-dimethoxy-4-hydroxystyryl)acrylonitrile]
- effectiveness as ex vivo purging agents [2]: effective
- promotion of myelopoiesis [1]: capable of promoting myelopoiesis
- colony formation of normal bone marrow after purging [3]: did not result in any significant inhibition
- killing of Ph+ ALL cells after purging [4]: complete killing
- effectiveness against a variety of cell types [5]: highly effective

- development of BFU-E colonies ([6]; 2.5 μM, 14 days, FIG. 12): significant inhibition
- BFU-E colonies ([6]; 5 μM, 14 days, FIG. 12): virtually absent
Structure (SMILES): N#C/C(=C\C=C\c1ccccc1)C(=O)NCc1ccc(O)c(O)c1 [CR19, (E,E)-2-(3,4 Dihydroxybenzylaminocarbonyl)-3-styrylacrylonitrile]
- promotion of myelopoiesis [1]: capable of promoting myelopoiesis
- CFU-C colony formation ([6]; 2.5 μM, 14 days, FIG. 12): boosted
- CFU-C colony formation ([6]; 5 μM, 14 days, FIG. 12): stimulatory effect disappeared
- normal cell growth and differentiation [6, 8]: unaffected
- effectiveness against a variety of cell types [5]: highly effective
- toxicity to cancer cells [5, 8]: highly toxic

- BFU-E colony formation ([6]; 20 μM, 14 days, FIG. 13): caused inhibition
Structure (SMILES): N#C/C(=C\C=C\c1ccc(O)c(O)c1)C(=O)NCc1ccc(O)c(O)c1 [CR21, (E,E)-2-(3,4 Dihydroxybenzylaminocarbonyl)-3-(3,4-dihydroxystyryl)acrylonitrile]
- concentrations displaying inhibition of Ph+ ALL cell growth ([7]; Example 42, FIG. 8, colonies at 12 days): 5 µM

- bone marrow colony formation ([6]; 10 or 20 μM, 14 days, FIG. 13): minimal inhibition
Structure (SMILES): COc1cc(/C=C/C=C(\C#N)C(=O)NCCO)cc(OC)c1O [CR24, (E,E)-2-(β-Ethanolaminocarbonyl)-3-(3,5-dimethoxy-4-hydroxystyryl)acrylonitrile]
- lowest concentration effective against Ph+ ALL cells ([7]; colonies at 9 days, FIG. 10): 0.5 µM

Structure (SMILES): COc1cc(/C=C/C=C(\C#N)C(=O)NCc2ccccc2)ccc1O [CR56, (E,E) 2-(benzylaminocarbonyl)-3-(3-methoxy-4-hydroxystyryl)acrylonitrile]
- promotion of myelopoiesis [1]: capable of promoting myelopoiesis
